From PMC5057115, “Cathelicidins in the Tasmanian devil (Sarcophilus harrisii)” (Scientific Reports, 2016)
Where no end group is shown, it is not given here.

Experiments:
[1] = test system: P. multocida*; format: cell-based, Pasteurella multocida; settings: broth microdilution (CLSI), 64 to 0.125 μg/mL, 24 h at 35 °C with 5% CO2; animal isolate
Method: (§1) Tissue expression of devil cathelicidin prepropeptides was determined by real-time PCR on a range of secretory, immune, reproductive, gastrointestinal and respiratory tissues, as well as BLAST searches of the milk transcriptome. Opportunistic tissue samples for real-time PCR were collected from Taronga Zoo (Sydney) from devils which were subject to euthanasia due to old age and advanced disease. The mature peptides of all six devil cathelicidins were synthesised by ChinaPeptides Co. Ltd. and their antimicrobial activity against bacterial and fungal pathogens determined by broth microdilution susceptibility assay according to clinical laboratory standards institute guidelines. Antimicrobial activity was expressed as minimum inhibitory concentration (MIC). Cytotoxicity was assessed in the human cell line A549 and haemolytic activity determined against human blood. Statistical significance of peptide effect on cell survival in comparison to the untreated control was calculated using a one sample t-test. […]
(§2) Two antibiotics, ampicillin and tetracycline, were included as a positive control for bacteria, and the antifungal drug fluconazole for fungi. […] Colonies were resuspended in saline and the OD530 measured with a McFarland reader. […] Assays Antimicrobial activity was expressed as minimum inhibitory concentration (MIC), which was defined as the lowest concentration of cathelicidin preventing visible growth, relative to the negative control. […]
(§3) DMEM and positive control of dimethylsulfoxide (DMSO) (1%) were also included. Following incubation for a further 24 hours, cell viability was determined using alamar blue (Invitrogen) which was added to each well. The plates were incubated for 24 hours, then the absorption measured at 570nm and 620nm using the Victor 3 multilabel plate reader (PerkinElmer). […] To x i city of cathelicidins was calculated according to Invitrogen recommendations and expressed as percentage cell survival compared to the untreated growth control. […]
(§4) Haemolytic activity was assessed using 10mL of human blood collected into potassium -ED T A […]

[2] = test system: S. pyogenes ATCC 19615; format: cell-based; settings: broth microdilution (CLSI), 64 to 0.125 μg/mL, 24 h at 35 °C with 5% CO2; ATCC strain
Method: as §1, with “t-test. Pouch microbiome analysis was performed on swabs from the pouch of lactating and non-lactating devils to detect changes in microbe populations. Pouch swab collection was carried out in accordance with the Save the Tasmanian Devil Program and was approved by the Animal Ethics Committee of the University of Sydney (permit number 681).” for “t-test.”
(§5) base (YNB) for fungi, from a concentration of 64μg/mL to 0.125μg/mL in a final volume of 100 μL .
(§6) Two antibiotics, ampicillin and tetracycline, were included as a positive control for bacteria, and the antifungal drug fluconazole for fungi. A well containing cells and media only was used as a “no drug” control to ensure that cultures grew normally. Bacteria were subcultured on Mueller Hinton agar (MHA) or Sheep blood agar (BA) for 24 hours at 35 °C for Staphylococcus spp., Pseudomonas spp., Enterococcus spp. and E.coli, with 5% CO2 for Streptococcus spp., K.pneumoniae, P.multocida, L.monocytogenes and N.asteroides. Similarly, fungi were subcultured on Sabouraud agar (SAB) at 35 °C for 24 hours prior to the test. Colonies were resuspended in saline and the OD530 measured with a McFarland reader. If necessary the suspension was diluted to 0.45-0.55 McFarland units with saline. Following a 1:150 dilution for bacteria and twostep dilution for fungi (1:50, 1:20), 100 μL of microorganisms (1x106 – 5 x10^5 cells/mL) were pipetted into wells 2-12, the first well acting as a negative control. Colony counts were performed using a 1:1000 dilution for bacteria and 1:10 for fungi spread onto MHA/BA or SAB plates respectively. The 96 well microdilution and agar plates were incubated for 24 hours at 35 °C (Escherichia coli, Staphylococcus spp., Enterococcus spp. and Pseudomonas spp.), with 5% CO2 (Streptococcus spp. Pasteurella multocida, Klebsiella pneumoniae, Listeria monocytogenes a nd Nocardia asteroids) for bacteria, and 35 °C for 48 hours (Candida spp .) or 72 hours (Cryptococcus spp.) for fungi. Assays Antimicrobial activity was expressed as minimum inhibitory concentration (MIC), which was defined as the lowest concentration of cathelicidin preventing visible growth, relative to the negative control. […]
(§7) DMEM and positive control of dimethylsulfoxide (DMSO) (1%) were also included. Following incubation for a further 24 hours, cell viability was determined using alamar blue (Invitrogen) which was added to each well. The plates were incubated for 24 hours, then the absorption measured at 570nm and 620nm using the Victor 3 multilabel plate reader (PerkinElmer). The assay was performed on two separate occasions. To x i city of cathelicidins was calculated according to Invitrogen recommendations and expressed as percentage cell survival compared to the untreated growth control. A significant difference between cathelicidin treated and control cell survival was tested using a o ne sample t-test (p<0.05).
as §4
(§8) vacutainers (BD). […]

[3] = test system: C. glabrata; format: cell-based; settings: broth microdilution (CLSI), YNB, 64 to 0.125 μg/mL, 48 hours at 35 °C; human clinical isolate
Method: as §1, with “t-test. Pouch microbiome analysis was performed on swabs from the pouch of lactating and non-lactating devils to detect changes in microbe populations. Pouch swab collection was carried out in accordance with the Save the Tasmanian Devil Program and was approved by the Animal Ethics Committee of the University of Sydney (permit number 681).” for “t-test.”
as §5, §6, §7, §4, §8

[4] = test system: S. lutetiensis; format: cell-based; settings: broth microdilution (CLSI), 64 to 0.125 μg/mL, 24 h at 35 °C with 5% CO2; human clinical isolate
Method: as §1, with “t-test. Pouch microbiome analysis was performed on swabs from the pouch of lactating and non-lactating devils to detect changes in microbe populations. Pouch swab collection was carried out in accordance with the Save the Tasmanian Devil Program and was approved by the Animal Ethics Committee of the University of Sydney (permit number 681).” for “t-test.”
as §5, §6, §7, §4, §8

[5] = test system: S. mutans; format: cell-based; settings: broth microdilution (CLSI), 64 to 0.125 μg/mL, 24 h at 35 °C with 5% CO2; human clinical isolate
Method: as §1, with “t-test. Pouch microbiome analysis was performed on swabs from the pouch of lactating and non-lactating devils to detect changes in microbe populations. Pouch swab collection was carried out in accordance with the Save the Tasmanian Devil Program and was approved by the Animal Ethics Committee of the University of Sydney (permit number 681).” for “t-test.”
as §5, §6, §7, §4, §8

[6] = test system: S. oralis/mitis group; format: cell-based; settings: broth microdilution (CLSI), 64 to 0.125 μg/mL, 24 h at 35 °C with 5% CO2; human clinical isolate
Method: as §1, with “t-test. Pouch microbiome analysis was performed on swabs from the pouch of lactating and non-lactating devils to detect changes in microbe populations. Pouch swab collection was carried out in accordance with the Save the Tasmanian Devil Program and was approved by the Animal Ethics Committee of the University of Sydney (permit number 681).” for “t-test.”
as §5, §6, §7, §4, §8

[7] = test system: C. albicans; format: cell-based; settings: broth microdilution (CLSI), YNB, 64 to 0.125 μg/mL, 48 hours at 35 °C; human clinical isolate
Method: as §1, with “t-test. Pouch microbiome analysis was performed on swabs from the pouch of lactating and non-lactating devils to detect changes in microbe populations. Pouch swab collection was carried out in accordance with the Save the Tasmanian Devil Program and was approved by the Animal Ethics Committee of the University of Sydney (permit number 681).” for “t-test.”
as §5, §6, §7, §4, §8

[8] = test system: S. equi*; format: cell-based; settings: broth microdilution (CLSI), 64 to 0.125 μg/mL, 24 h at 35 °C with 5% CO2; animal isolate
Method: as §1, with “t-test. Pouch microbiome analysis was performed on swabs from the pouch of lactating and non-lactating devils to detect changes in microbe populations. Pouch swab collection was carried out in accordance with the Save the Tasmanian Devil Program and was approved by the Animal Ethics Committee of the University of Sydney (permit number 681).” for “t-test.”
as §5, §6, §7, §4, §8

[9] = test system: N. asteroides*; format: cell-based; settings: broth microdilution (CLSI), 64 to 0.125 μg/mL, 24 h at 35 °C with 5% CO2; animal isolate
Method: as §1, with “t-test. Pouch microbiome analysis was performed on swabs from the pouch of lactating and non-lactating devils to detect changes in microbe populations. Pouch swab collection was carried out in accordance with the Save the Tasmanian Devil Program and was approved by the Animal Ethics Committee of the University of Sydney (permit number 681).” for “t-test.”
as §5, §6, §7, §4, §8

[10] = test system: S. salivarius; format: cell-based; settings: broth microdilution (CLSI), 64 to 0.125 μg/mL, 24 h at 35 °C with 5% CO2; human clinical isolate
Method: as §1, with “t-test. Pouch microbiome analysis was performed on swabs from the pouch of lactating and non-lactating devils to detect changes in microbe populations. Pouch swab collection was carried out in accordance with the Save the Tasmanian Devil Program and was approved by the Animal Ethics Committee of the University of Sydney (permit number 681).” for “t-test.”
as §5, §6, §7, §4, §8

[11] = test system: S. dysgalactiae subs. equisimilis; format: cell-based; settings: broth microdilution (CLSI), 64 to 0.125 μg/mL, 24 h at 35 °C with 5% CO2; human clinical isolate
Method: as §1, with “t-test. Pouch microbiome analysis was performed on swabs from the pouch of lactating and non-lactating devils to detect changes in microbe populations. Pouch swab collection was carried out in accordance with the Save the Tasmanian Devil Program and was approved by the Animal Ethics Committee of the University of Sydney (permit number 681).” for “t-test.”
as §5, §6, §7, §4, §8

[12] = test system: S. agalactiae; format: cell-based; settings: broth microdilution (CLSI), 64 to 0.125 μg/mL, 24 h at 35 °C with 5% CO2; human clinical isolate
Method: as §1, with “t-test. Pouch microbiome analysis was performed on swabs from the pouch of lactating and non-lactating devils to detect changes in microbe populations. Pouch swab collection was carried out in accordance with the Save the Tasmanian Devil Program and was approved by the Animal Ethics Committee of the University of Sydney (permit number 681).” for “t-test.”
as §5, §6, §7, §4, §8

[13] = test system: S. agalactiae ATCC 12386; format: cell-based; settings: broth microdilution (CLSI), 64 to 0.125 μg/mL, 24 h at 35 °C with 5% CO2; ATCC strain
Method: as §1, with “t-test. Pouch microbiome analysis was performed on swabs from the pouch of lactating and non-lactating devils to detect changes in microbe populations. Pouch swab collection was carried out in accordance with the Save the Tasmanian Devil Program and was approved by the Animal Ethics Committee of the University of Sydney (permit number 681).” for “t-test.”
as §5, §6, §7, §4, §8

[14] = test system: S. anginosus; format: cell-based; settings: broth microdilution (CLSI), 64 to 0.125 μg/mL, 24 h at 35 °C with 5% CO2; human clinical isolate
Method: as §1, with “t-test. Pouch microbiome analysis was performed on swabs from the pouch of lactating and non-lactating devils to detect changes in microbe populations. Pouch swab collection was carried out in accordance with the Save the Tasmanian Devil Program and was approved by the Animal Ethics Committee of the University of Sydney (permit number 681).” for “t-test.”
as §5, §6, §7, §4, §8

[15] = test system: L. monocytogenes*; format: cell-based, Listeria monocytogenes; settings: broth microdilution (CLSI), 64 to 0.125 μg/mL, 24 h at 35 °C with 5% CO2; animal isolate
Method: as §1, with “t-test. Pouch microbiome analysis was performed on swabs from the pouch of lactating and non-lactating devils to detect changes in microbe populations.” for “t-test.”
as §2
(§9) 570nm and 620nm using the Victor 3 multilabel plate reader (PerkinElmer). […] To x i city of cathelicidins was calculated according to Invitrogen recommendations and expressed as percentage cell survival compared to the untreated growth control. […]
(§10) Haemolytic activity was assessed using 10mL of human blood collected into potassium -ED T A vacutainers (BD). […]

[16] = test system: P. aeruginosa ATCC 27853; assay: microbe, parasite or virus in culture; format: cell-based, Pseudomonas aeruginosa; settings: ATCC 27853, 24 h
Method: as §1, with “t-test. Pouch microbiome analysis was performed on swabs from the pouch of lactating and non-lactating devils to detect changes in microbe populations. Pouch swab collection was carried out in accordance with the Save the Tasmanian Devil Program and was approved by the Animal Ethics Committee of the University of Sydney (permit number 681).” for “t-test.”
as §5
(§11) Two antibiotics, ampicillin and tetracycline, were included as a positive control for bacteria, and the antifungal drug fluconazole for fungi. A well containing cells and media only was used as a “no drug” control to ensure that cultures grew normally. Bacteria were subcultured on Mueller Hinton agar (MHA) or Sheep blood agar (BA) for 24 hours at 35 °C for Staphylococcus spp., Pseudomonas spp., Enterococcus spp. and E.coli, with 5% CO2 for Streptococcus spp., K.pneumoniae, P.multocida, L.monocytogenes and N.asteroides. Similarly, fungi were subcultured on Sabouraud agar (SAB) at 35 °C for 24 hours prior to the test. Colonies were resuspended in saline and the OD530 measured with a McFarland reader. If necessary the suspension was diluted to 0.45-0.55 McFarland units with saline. […] Assays Antimicrobial activity was expressed as minimum inhibitory concentration (MIC), which was defined as the lowest concentration of cathelicidin preventing visible growth, relative to the negative control. […]
as §9, §10

[17] = test system: E. faecalis ATCC 29212; assay: microbe, parasite or virus in culture; format: cell-based, Enterococcus faecalis; settings: ATCC 29212, 24 h
Method: as §1, with “t-test. Pouch microbiome analysis was performed on swabs from the pouch of lactating and non-lactating devils to detect changes in microbe populations. Pouch swab collection was carried out in accordance with the Save the Tasmanian Devil Program and was approved by the Animal Ethics Committee of the University of Sydney (permit number 681).” for “t-test.”
as §5, §11, §9, §10

[18] = test system: E. coli; format: cell-based, Escherichia coli; settings: broth microdilution (CLSI), 64 to 0.125 μg/mL, 24 h at 35 °C; human clinical isolate
Method: as §1, §2, §3, §4

Sequence	MIC [1]	MIC [2]	MIC [3]	MIC [4]	MIC [5]	MIC [6]	MIC [7]	MIC [8]	MIC [9]	MIC [10]	MIC [11]	MIC [12]	MIC [13]	MIC [14]	MIC [15]	MIC [16]	MIC [17]	MIC [18]
KRIRFFERIRDRLRDLGNRIKNRIRDFFS [Saha-CATH6]	>64 mg/L	64 mg/L	>64 mg/L	>64 mg/L	>64 mg/L	64 mg/L	>64 mg/L	>64 mg/L	>64 mg/L	>64 mg/L	>64 mg/L	>64 mg/L	64 mg/L	64 mg/L	>64 mg/L	>64 mg/L	>64 mg/L	>64 mg/L
KRIGLIRLIGKILRGLRRLG [Saha-CATH5]	>64 mg/L	32 mg/L	>64 mg/L	>64 mg/L	>64 mg/L	64 mg/L	>64 mg/L	64 mg/L	>64 mg/L	>64 mg/L	>64 mg/L	64 mg/L	64 mg/L	32 mg/L	>64 mg/L	>64 mg/L	>64 mg/L	32 mg/L
